Earlier results as cited in patent publication US20100129431A1, “IDEBENONE COMPOSITION FOR THE TREATMENT OF NEUROLOGICAL DISORDERS” (AlphaRx Inc., priority 2008, published 2010).

Assays:
[1] = test system: patients with cerebrovascular disease; conditions: 90 mg daily, nine patients
[2] = test system: cultured cortical neurons; conditions: also when applied 30 minutes after the NMDA pulse
[3] = test system: Friedreich's Ataxia patients
free radical species = conditions: cell cultures
[4] = test system: microsomal lipid peroxidation; conditions: induced by ADP-iron complexes or organic hydroperoxides
rats = conditions: cerebral embolization, cerebral ischemia or basal forebrain lesions
[5] = clinical tests
[6] = oral

microsomal lipid peroxidation [4]: inhibit microsomal lipid peroxidation
bioavailability [6]: relatively, high
water solubility: low
Structure (SMILES): COC1=C(OC)C(=O)C(CCCCCCCCCCO)=C(C)C1=O [Idebenone, 2,3-dimethoxy-5-methyl-6-(10-hydroxydecyl)-1,4-benzoquinone]
EEG and clinical symptoms [1]: improvements in EEG and clinical symptoms
protection against necrotic degeneration [2]: protects cultured cortical neurons against necrotic degeneration
left ventricular enlargement ([3]; 5 mg/kg daily for 4-9 months, three patients): reduction of left ventricular enlargement
marker of oxidative DNA damage ([3]; oral 5 mg/kg daily for 8 weeks): significantly decreased
free radical scavenging (free radical species): scavenged a variety of free radical species
learning and memory disturbances (rats): ameliorates learning and memory disturbances
psychological deficits (memory retention, disorientation) [5]: effective in reducing psychological deficits
